According to ChEMBL document CHEMBL1143986, “Probing lipid- and drug-binding domains with fluorescent dyes” (Bioorg Med Chem, 2008):

Columns and labels:
[1] = Aqueous solubility of the compound; type: physicochemical
Albumin = Albumin (Bos taurus, UniProt P02769); assay: Binding affinity to bovine serum albumin
Sequence of Albumin (P02769 whole entry): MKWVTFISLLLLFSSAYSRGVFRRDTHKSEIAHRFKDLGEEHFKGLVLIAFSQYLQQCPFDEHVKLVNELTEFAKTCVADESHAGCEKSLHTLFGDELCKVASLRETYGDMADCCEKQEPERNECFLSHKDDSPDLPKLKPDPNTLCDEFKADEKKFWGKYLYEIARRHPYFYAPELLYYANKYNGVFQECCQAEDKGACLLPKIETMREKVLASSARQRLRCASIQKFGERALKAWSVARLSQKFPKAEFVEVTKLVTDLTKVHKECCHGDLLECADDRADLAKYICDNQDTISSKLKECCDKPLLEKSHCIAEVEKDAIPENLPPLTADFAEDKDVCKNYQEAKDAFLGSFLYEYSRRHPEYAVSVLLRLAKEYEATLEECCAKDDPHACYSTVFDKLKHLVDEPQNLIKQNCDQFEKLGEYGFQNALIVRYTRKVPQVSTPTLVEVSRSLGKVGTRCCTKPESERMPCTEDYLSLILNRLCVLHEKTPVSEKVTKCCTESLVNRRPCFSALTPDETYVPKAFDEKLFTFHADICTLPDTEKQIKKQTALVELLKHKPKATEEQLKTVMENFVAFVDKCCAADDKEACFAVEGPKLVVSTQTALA

Row | Compound | solubility [1] | EC50 (Albumin)
1 | CCN(CC)c1ccc2nc3c4ccc(OCCCC(=O)O)cc4c(=O)c(Br)c-3oc2c1 | > 100 µM | 
2 | CCN(CC)c1ccc2nc3c4cc(OCCCC(=O)O)ccc4c(=O)cc-3oc2c1 | > 100 µM | 1500 nM
3 | CCN(CC)c1ccc2nc3c4cc(OCCCC(=O)O)ccc4c(=O)c(Br)c-3oc2c1 | > 100 µM | 
4 | CCN(CC)c1ccc2nc3c4ccc(OCCCC(=O)O)cc4c(=O)cc-3oc2c1 | > 100 µM | 
